Values of other authors, collected in patent publication EP4755392A1, “ORAL PREPARATION FOR IMPROVING MINIMAL ERYTHEMA DOSE” (Mitsubishi Corporation Life Sciences Limited, priority 2023, dated 2025).

Details: after 6 months, ingesting 250 mg or more

blood glutathione amount increased: 17%
SMILES: N[C@@H](CCC(=O)N[C@@H](CS)C(=O)NCC(=O)O)C(=O)O [glutathione]
